According to US20230286970A1, “NOVEL OXADIAZOLE-BASED SELECTIVE HDAC6 INHIBITORS” (ITALFARMACO S.P.A., priority 2020, published 2023):
pIC50: −log10 of the molar value.

Columns and labels:
[1] = molecular target: recombinant human HDAC6 (Homo sapiens (Human), UniProt Q9UBN7); test: Enzymatic screening, HDAC6 inhibition (fluorogenic FdL_G substrate); format: biochemical
How it was run: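 Enzyme was preincubated with compound (8 doses, triplicate, 1% DMSO) in 25 mM Tris-HCl pH 8, 130 mM NaCl, 0.05% Tween-20, 10% glycerol, with BSA. A FLUOR DE LYS-Green substrate was then added, and fluorescence was read after developer plus 2 μM TSA.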

[2] = molecular target: recombinant human HDAC1 (Homo sapiens (Human), UniProt Q13547); test: Enzymatic screening, HDAC1 inhibition (fluorogenic FdL_G substrate); format: biochemical
Chain of recombinant human HDAC1 (Q13547 whole entry): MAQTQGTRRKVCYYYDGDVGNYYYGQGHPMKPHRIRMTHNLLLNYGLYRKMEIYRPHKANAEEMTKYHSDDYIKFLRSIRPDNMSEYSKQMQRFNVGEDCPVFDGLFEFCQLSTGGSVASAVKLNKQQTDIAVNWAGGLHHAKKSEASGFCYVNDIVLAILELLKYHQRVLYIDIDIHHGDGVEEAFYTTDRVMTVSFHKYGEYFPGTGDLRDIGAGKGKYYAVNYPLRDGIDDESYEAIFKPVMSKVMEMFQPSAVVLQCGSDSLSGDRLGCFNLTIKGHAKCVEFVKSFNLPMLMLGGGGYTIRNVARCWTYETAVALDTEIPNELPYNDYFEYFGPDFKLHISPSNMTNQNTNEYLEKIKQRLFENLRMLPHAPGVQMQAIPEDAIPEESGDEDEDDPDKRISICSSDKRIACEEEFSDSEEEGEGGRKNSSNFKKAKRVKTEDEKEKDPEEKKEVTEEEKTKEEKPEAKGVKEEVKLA
How it was run: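 Recombinant human HDAC1 inhibition was measured fluorometrically using the FLUOR DE LYS-Green (FdL_G) substrate. Compounds at 8 doses (1% DMSO final) in Tris-HCl pH 8 buffer with NaCl, Tween-20 and glycerol were preincubated in triplicate with enzyme and 1 mg/mL BSA, then given substrate. Developer I plus 2 μM TSA was added, and fluorescence read after 25 minutes in the dark.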

Chain of recombinant human HDAC6 (Q9UBN7 whole entry): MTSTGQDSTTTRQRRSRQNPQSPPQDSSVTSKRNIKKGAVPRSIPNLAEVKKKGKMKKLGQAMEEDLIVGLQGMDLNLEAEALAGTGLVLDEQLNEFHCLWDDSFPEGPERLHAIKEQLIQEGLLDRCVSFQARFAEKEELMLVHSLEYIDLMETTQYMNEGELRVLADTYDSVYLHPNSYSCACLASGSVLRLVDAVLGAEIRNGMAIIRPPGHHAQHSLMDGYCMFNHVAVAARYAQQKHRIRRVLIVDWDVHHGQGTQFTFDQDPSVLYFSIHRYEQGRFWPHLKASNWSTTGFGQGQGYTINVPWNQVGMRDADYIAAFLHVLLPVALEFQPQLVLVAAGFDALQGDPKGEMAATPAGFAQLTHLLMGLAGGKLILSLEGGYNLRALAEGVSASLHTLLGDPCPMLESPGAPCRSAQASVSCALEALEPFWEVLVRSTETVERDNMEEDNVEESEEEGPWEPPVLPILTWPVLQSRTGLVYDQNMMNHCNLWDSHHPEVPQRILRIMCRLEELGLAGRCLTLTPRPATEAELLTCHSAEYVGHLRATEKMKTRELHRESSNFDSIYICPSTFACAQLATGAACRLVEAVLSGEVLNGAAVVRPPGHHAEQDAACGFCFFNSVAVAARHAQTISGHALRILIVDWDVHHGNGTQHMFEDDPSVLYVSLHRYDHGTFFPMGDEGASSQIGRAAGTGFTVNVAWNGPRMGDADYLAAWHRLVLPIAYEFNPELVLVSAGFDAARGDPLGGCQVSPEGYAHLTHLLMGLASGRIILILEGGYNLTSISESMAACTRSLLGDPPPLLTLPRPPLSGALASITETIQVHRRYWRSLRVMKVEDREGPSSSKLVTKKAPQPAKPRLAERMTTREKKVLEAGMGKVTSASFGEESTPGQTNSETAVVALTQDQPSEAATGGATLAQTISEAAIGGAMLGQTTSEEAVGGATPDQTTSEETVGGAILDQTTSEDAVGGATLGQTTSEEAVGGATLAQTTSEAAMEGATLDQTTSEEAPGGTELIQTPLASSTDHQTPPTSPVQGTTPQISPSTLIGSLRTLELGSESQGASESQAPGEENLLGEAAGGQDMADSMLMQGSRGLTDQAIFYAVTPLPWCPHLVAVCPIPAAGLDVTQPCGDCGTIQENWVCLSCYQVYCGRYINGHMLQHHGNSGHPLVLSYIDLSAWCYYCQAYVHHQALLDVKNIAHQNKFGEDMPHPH

Row | pIC50 [1] | pIC50 [2] | SMILES
1 | 7.60 | < 3.00 | Cn1c(N)nc2cc(-c3nnn(Cc4ccc(-c5nnc(C(F)F)o5)c(F)c4F)n3)ccc21 [compound 371, 5-[2-[[4-[5-(difluoromethyl)-1,3,4-oxadiazol-2-yl]-2,3-difluorophenyl]methyl]tetrazol-5-yl]-1-methylbenzimidazol-2-amine]
2 | 6.97 | < 3.00 | FC(F)c1nnc(-c2ccc(Cn3nnc(-c4cccc(-c5nc6c([nH]5)CNCC6)c4)n3)c(Cl)c2)o1 [compound 365, 2-[3-chloro-4-[[5-[3-(4,5,6,7-tetrahydro-3H-imidazo[4,5-c]pyridin-2-yl)phenyl]tetrazol-2-yl]methyl]phenyl]-5-(difluoromethyl)-1,3,4-oxadiazole]
3 | 7.96 | < 3.00 | Fc1c(Cn2cnc(-c3ccc(NC4=NCCN4)cc3)c2)ccc(-c2nnc(C(F)F)o2)c1F [compound 359, N-[4-[1-[[4-[5-(difluoromethyl)-1,3,4-oxadiazol-2-yl]-2,3-difluorophenyl]methyl]imidazol-4-yl]phenyl]-4,5-dihydro-1H-imidazol-2-amine]
4 | 7.55 | < 3.00 | [2H]C([2H])(c1cc(F)c(-c2nnc(C(F)F)o2)cc1F)n1cc(-c2ccc(N)nc2)nn1 [compound 381, 5-[1-[dideuterio-[4-[5-(difluoromethyl)-1,3,4-oxadiazol-2-yl]-2,5-difluorophenyl]methyl]triazol-4-yl]pyridin-2-amine]
5 | 7.74 | < 3.00 | Fc1cc(Cn2cnc(-c3ccc(NC4=NCCN4)cc3)c2)ccc1-c1nnc(C(F)F)o1 [compound 360, N-[4-[1-[[4-[5-(difluoromethyl)-1,3,4-oxadiazol-2-yl]-3-fluorophenyl]methyl]imidazol-4-yl]phenyl]-4,5-dihydro-1H-imidazol-2-amine]
6 | 7.85 | < 3.00 | Cn1c(N)nc2cc(-c3cn(Cc4ccc(-c5nnc(C(F)F)o5)cn4)cn3)ccc21 [compound 328, 5-[1-[[5-[5-(difluoromethyl)-1,3,4-oxadiazol-2-yl]pyridin-2-yl]methyl]imidazol-4-yl]-1-methylbenzimidazol-2-amine]
7 | 6.60 | 3.00 | Nc1nccc2cc(-c3nnn(Cc4ccc(-c5nnc(C(F)F)o5)cc4Cl)n3)ccc12 [compound 422, 6-(2-(2-chloro-4-(5-(difluoromethyl)-1,3,4-oxadiazol-2-yl)benzyl)-2H-tetrazol-5-yl)isoquinolin-1-amine]
8 | 7.77 | < 3.00 | [2H]C([2H])(c1ccc(-c2nnc(C(F)F)o2)cn1)n1cc(-c2cccc(NC(=O)N3CCOCC3)c2)nn1 [compound 369, N-[3-[1-[dideuterio-[5-[5-(difluoromethyl)-1,3,4-oxadiazol-2-yl]pyridin-2-yl]methyl]triazol-4-yl]phenyl]morpholine-4-carboxamide]
9 | 6.07 | 3.00 | CCNc1ncc2cc(-c3cn(Cc4ccc(-c5nnc(C(F)F)o5)c(F)c4)nn3)ccc2n1 [compound 395, 6-(1-(4-(5-(difluoromethyl)-1,3,4-oxadiazol-2-yl)-3-fluorobenzyl)-1H-1,2,3-triazol-4-yl)-N-ethylquinazolin-2-amine]
10 | 7.00 | < 3.00 | Cn1c(N)nc2cc(-c3nnn(Cc4ccc(-c5nnc(C(F)F)o5)cc4Cl)n3)ccc21 [compound 374, 5-[2-[[2-chloro-4-[5-(difluoromethyl)-1,3,4-oxadiazol-2-yl]phenyl]methyl]tetrazol-5-yl]-1-methylbenzimidazol-2-amine]

Continued, compound first:

Row | SMILES | pIC50 [1] | pIC50 [2]
11 | O=C(c1cccc(-c2nnn(Cc3ccc(-c4nnc(C(F)F)o4)cc3)n2)c1)N1CCOCC1 [compound 120, (3-(2-(4-(5-(difluoromethyl)-1,3,4-oxadiazol-2-yl)benzyl)-2H-tetrazol-5-yl)phenyl)(morpholino)methanone] | 7.35 | < 3.70
12 | O=C1Cc2cc(-c3cn(Cc4ccc(-c5nnc(C(F)F)o5)cn4)nn3)ccc2N1 [compound 325, 5-[1-[[5-[5-(difluoromethyl)-1,3,4-oxadiazol-2-yl]pyridin-2-yl]methyl]triazol-4-yl]-1,3-dihydroindol-2-one] | 7.59 | < 3.00
13 | O=C1NCc2cc(-c3nnn(Cc4ccc(-c5nnc(C(F)F)o5)cc4)n3)ccc21 [compound 167, 5-(2-(4-(5-(difluoromethyl)-1,3,4-oxadiazol-2-yl)benzyl)-2H-tetrazol-5-yl)isoindolin-1-one] | 7.10 | < 3.70
14 | Nc1ccc(-c2nnn(Cc3ncc(-c4nnc(C(F)F)o4)cn3)n2)cn1 [compound 77, 5-(2-((5-(5-(difluoromethyl)-1,3,4-oxadiazol-2-yl)pyrimidin-2-yl)methyl)-2H-tetrazol-5-yl)pyridin-2-amine] | 7.46 | < 3.70
15 | Nc1ccc(-c2cn(Cc3ccc(-c4nnc(C(F)F)o4)nn3)nn2)cn1 [compound 198, 5-(1-((6-(5-(difluoromethyl)-1,3,4-oxadiazol-2-yl)pyridazin-3-yl)methyl)-1H-1,2,3-triazol-4-yl)pyridin-2-amine] | 6.96 | < 3.70
16 | CCNc1cccc(-c2cn(Cc3ccc(-c4nnc(C(F)F)o4)cc3)nn2)c1 [compound 180, 3-(1-(4-(5-(difluoromethyl)-1,3,4-oxadiazol-2-yl)benzyl)-1H-1,2,3-triazol-4-yl)-N-ethylaniline] | 7.04 | < 3.70
17 | O=C1Nc2ccc(-c3cn(Cc4ccc(-c5nnc(C(F)F)o5)cc4)nn3)cc2C12CCCC2 [compound 61, 5′-(1-(4-(5-(difluoromethyl)-1,3,4-oxadiazol-2-yl)benzyl)-1H-1,2,3-triazol-4-yl)spiro[cyclopentane-1,3′-indolin]-2′-one] | 7.57 | < 3.70
18 | O=C(Nc1cccc(-c2nnn(Cc3ccc(-c4nnc(C(F)F)o4)cc3)n2)c1)N1CCOCC1 [compound 71, N-(3-(2-(4-(5-(difluoromethyl)-1,3,4-oxadiazol-2-yl)benzyl)-2H-tetrazol-5-yl)phenyl)morpholine-4-carboxamide] | 7.52 | < 3.70
19 | Nc1ccc(-c2cn(Cc3ncc(-c4nnc(C(F)F)o4)cn3)nn2)cn1 [compd. 125, 5-(1-((5-(5-(difluoromethyl)-1,3,4-oxadiazol-2-yl)pyrimidin-2-yl)methyl)-1H-1,2,3-triazol-4-yl)pyridin-2-amine] | 7.32 | < 3.70
20 | FC(F)c1nnc(-c2ccc(Cn3nnc(Cc4ccccn4)n3)cc2)o1 [compound 251, 2-(difluoromethyl)-5-(4-((5-(pyridin-2-ylmethyl)-2H-tetrazol-2-yl)methyl)phenyl)-1,3,4-oxadiazole] | 6.53 | < 3.70
21 | CC1(C)NC(=O)c2cc(-c3cn(Cc4ccc(-c5nnc(C(F)F)o5)cc4)nn3)ccc21 [compound 245, 6-(1-(4-(5-(difluoromethyl)-1,3,4-oxadiazol-2-yl)benzyl)-1H-1,2,3-triazol-4-yl)-3,3-dimethylisoindolin-1-one] | 6.58 | < 3.70
22 | Nc1ccc(-c2cc(Cc3ccc(-c4nnc(C(F)F)o4)cc3)on2)cn1 [Compd. 202, 5-(5-(4-(5-(difluoromethyl)-1,3,4-oxadiazol-2-yl)benzyl)isoxazol-3-yl)pyridin-2-amine] | 6.94 | < 3.70
23 | O=C1NCCc2ccc(-c3nnn(Cc4ccc(-c5nnc(C(F)F)o5)cc4)n3)cc21 [compound 83, 7-[2-[[4-[5-(difluoromethyl)-1,3,4-oxadiazol-2-yl]phenyl]methyl]tetrazol-5-yl]-3,4-dihydro-2H-isoquinolin-1-one] | 7.48 | < 3.70
24 | NC(=O)c1cccc(-c2cn(Cc3ccc(-c4nnc(C(F)F)o4)cn3)cn2)c1 [compd. 305, 3-[1-[[5-[5-(difluoromethyl)-1,3,4-oxadiazol-2-yl]pyridin-2-yl]methyl]imidazol-4-yl]benzamide] | 7.64 | < 3.00
25 | O=C1NCc2ccc(-c3nnn(Cc4ncc(-c5nnc(C(F)F)o5)cn4)n3)cc21 [compound 107, 6-(2-((5-(5-(difluoromethyl)-1,3,4-oxadiazol-2-yl)pyrimidin-2-yl)methyl)-2H-tetrazol-5-yl)isoindolin-1-one] | 7.39 | < 3.70
26 | O=C(Nc1cc(-c2nnn(Cc3ccc(-c4nnc(C(F)F)o4)cc3)n2)ccc1Sc1ccccc1)N1CCOCC1 [compound 258, N-(5-(2-(4-(5-(difluoromethyl)-1,3,4-oxadiazol-2-yl)benzyl)-2H-tetrazol-5-yl)-2-(phenylthio)phenyl)morpholine-4-carboxamide] | 6.39 | < 3.70
27 | CNc1ccc(-c2nnn(Cc3ccc(-c4nnc(C(F)F)o4)cc3)n2)cc1NC(=O)N1CCOCC1 [compound 176, N-(5-(2-(4-(5-(difluoromethyl)-1,3,4-oxadiazol-2-yl)benzyl)-2H-tetrazol-5-yl)-2-(methylamino)phenyl)morpholine-4-carboxamide] | 7.06 | < 3.70
28 | FC(F)c1nnc(-c2cnc(Cn3nnnc3-c3cccs3)nc2)o1 [compound 299, 2-(difluoromethyl)-5-(2-((5-(thiophen-2-yl)-1H-tetrazol-1-yl)methyl)pyrimidin-5-yl)-1,3,4-oxadiazole] | 6.96 | < 3.70
29 | Nc1cc(-c2nnn(Cc3c(F)cc(-c4nnc(C(F)F)o4)cc3F)n2)ccc1OC(=O)N1CCOCC1 [compound 160, 2-amino-4-(2-(4-(5-(difluoromethyl)-1,3,4-oxadiazol-2-yl)-2,6-difluorobenzyl)-2H-tetrazol-5-yl)phenyl morpholine-4-carboxylate] | 7.13 | < 3.70
30 | FC(F)c1nnc(-c2ccc(Cc3nnc(-c4ccccc4)s3)cc2)o1 [Compd. 238, 2-(difluoromethyl)-5-(4-((5-phenyl-1,3,4-thiadiazol-2-yl)methyl)phenyl)-1,3,4-oxadiazole] | 6.68 | < 3.70
